Literature values in patent US20020068684A1, “Stripping and cleaning compositions” (priority 1999, published 2002).

Conditions: from CRC tables

Oc1ccccc1O [Catechol]
PKa: 9.85
